26 compounds from patent publication US9850225B2, “Compounds useful as immunomodulators” (BRISTOL-MYERS SQUIBB COMPANY, priority 2014, dated 2017) can be followed below.

Counter-ions that a name gives are not always drawn.

For the first test, the target named is PD-1/PD-L1 interaction (PD-1-Ig / PD-L1-His) (Homo sapiens (Human), UniProt Q9NZQ7). The test can be described thus: PD-1/PD-L1 Homogenous Time-Resolved Fluorescence (HTRF) binding assay. The following applies: PD-1/PD-L1 HTRF binding assay; numeric value; read-out: Range or IC50. Put shortly: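 HTRF detection used 1 nM europium-cryptate anti-Ig and 20 nM APC anti-His. Compounds first saw 10 nM PD-L1-His for 15 min, and 20 nM PD-1-Ig was then added for another 15 min. Buffer was dPBS plus 0.1% BSA and 0.05% Tween-20. All concentrations are final.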
PD-1/PD-L1 interaction (PD-1-Ig / PD-L1-His), sequence (Q9NZQ7 other isoform, or with tags, fused parts or gaps): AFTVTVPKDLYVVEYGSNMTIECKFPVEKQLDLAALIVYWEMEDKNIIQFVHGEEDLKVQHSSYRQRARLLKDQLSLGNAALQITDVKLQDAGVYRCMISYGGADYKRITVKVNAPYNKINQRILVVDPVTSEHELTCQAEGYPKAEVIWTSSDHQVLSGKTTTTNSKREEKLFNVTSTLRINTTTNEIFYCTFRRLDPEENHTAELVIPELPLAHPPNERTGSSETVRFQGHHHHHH
For orientation: TR-FRET usually uses a lanthanide donor and a delayed reading to cut background.
A word on the IC50: it is the midpoint of a concentration-inhibition curve. On to `CC(=O)NCCNCc1ccc(OCc2cccc(-c3ccccc3)c2C)cc1OCc1cccc(OC(F)(F)F)c1` [Example 1082, N-(2-((4-((2-methyl-[1,1′-biphenyl]-3-yl)methoxy)-2-((3-(trifluoromethoxy)benzyl)oxy)benzyl)amino)ethyl)acetamide], for which the concentration for half-maximal inhibition (IC50) came out at 828 nM.

The test is the same for the next values; noted with them: PD-1/PD-L1 HTRF binding assay; value given as range class; read-out: Range or IC50.
For `Cc1c(COc2cc(OCc3cccc(C#N)c3)c(CN[C@@H](C(=O)O)[C@H](C)O)cc2Cl)cccc1-c1ccc2c(c1)OCCO2` [Example 1195, (2R,3S)-2-((5-chloro-2-((3-cyanobenzyl)oxy)-4-((3-(2,3-dihydrobenzo[b][1,4]dioxin-6-yl)-2-methylbenzyl)oxy)benzyl)amino)-3-hydroxybutanoic acid], the IC50 was 0.6 to 10 nM.
As for `Cc1cc(CN[C@@](C)(CO)C(=O)O)c(OCc2ccc(F)c(C#N)c2)cc1OCc1cccc(-c2ccc3c(c2)OCCO3)c1C` [Example 1275, (S)-2-((2-((3-cyano-4-fluorobenzyl)oxy)-4-((3-(2,3-dihydrobenzo[b][1,4]dioxin-6-yl)-2-methylbenzyl)oxy)-5-methylbenzyl)amino)-3-hydroxy-2-methylpropanoic acid], the IC50 fell in the range of 0.6 to 10 nM.
The same measure, in the same setting: the value for `Cc1c(COc2ccc(CN3CCCC[C@H]3C(=O)O)c(OCc3ccc(F)c(C#N)c3)c2)cccc1-c1ccccc1` [Example 1334, (S)-1-(2-((3-cyano-4-fluorobenzyl)oxy)-4-((2-methyl-[1,1′-biphenyl]-3-yl)methoxy)benzyl)piperidine-2-carboxylic acid] was 0.6 to 10 nM.
In the case of `Cc1c(COc2cc(OCc3cncc(C#N)c3)c(CN[C@@H](CC(=O)O)C(=O)O)cc2Cl)cccc1-c1ccc2c(c1)OCCO2` [Example 3023, (S)-2-((5-chloro-2-((5-cyanopyridin-3-yl)methoxy)-4-((3-(2,3-dihydrobenzo[b][1,4]dioxin-6-yl)-2-methylbenzyl)oxy)benzyl)amino)succinic acid], the 50% inhibitory concentration (IC50) lay in the range of 0.6 to 10 nM.
The same measure, in the same setting: then `Cc1cc(CNC[C@@H](O)CC(=O)O)c(OCCCCC#N)cc1OCc1cccc(-c2ccc3c(c2)OCCO3)c1C` [Example 1295, (S)-4-(2-(4-cyanobutoxy)-4-(3-(2,3-dihydrobenzo[b][1,4]dioxin-6-yl)-2-methylbenzyloxy)-5-methylbenzylamino)-3-hydroxybutanoic acid], with 0.6 to 10 nM.
For `CC(=O)NCCNCc1ccc(OCc2cccc(-c3ccccc3)c2C)cc1OCc1ccc(Cl)cc1` [Example 1068, N-(2-((2-((4-chlorobenzyl)oxy)-4-((2-methyl-[1,1′-biphenyl]-3-yl)methoxy)benzyl)amino)ethyl)acetamide], the IC50 is 100 to 20000 nM.
The same measure, in the same setting: the value for `Cc1c(COc2cc(OCc3cccc(C#N)c3)c(CN3CCC[C@@H](C(=O)O)[C@H]3C(=O)O)cc2Cl)cccc1-c1ccc2c(c1)OCCO2` [Example 1190, (2S,3R)-1-(5-chloro-2-((3-cyanobenzyl)oxy)-4-((3-(2,3-dihydrobenzo[b][1,4]dioxin-6-yl)-2-methylbenzyl)oxy)benzyl)piperidine-2,3-dicarboxylic acid] was 0.6 to 10 nM; that for `CC(=O)NCCNCc1ccc(OCc2cccc(-c3ccccc3)c2C)cc1OCc1ccccc1Cl` [Example 1053, N-(2-((2-((2-chlorobenzyl)oxy)-4-((2-methyl-[1,1′-biphenyl]-3-yl)methoxy)benzyl)amino)ethyl)acetamide] was 100 to 20000 nM; that for `CC[C@@H](NCc1cc(Cl)c(OCc2cccc(-c3ccc4c(c3)OCCO4)c2C)cc1OCc1cccc(C#N)c1)C(=O)O` [Example 1193, (R)-2-((5-chloro-2-((3-cyanobenzyl)oxy)-4-((3-(2,3-dihydrobenzo[b][1,4]dioxin-6-yl)-2-methylbenzyl)oxy)benzyl)amino)butanoic acid] was 0.6 to 10 nM.
On to `CC(=O)NCCNCc1ccc(OCc2cccc(-c3ccccc3)c2C)cc1OCc1cc(C(F)(F)F)cc(C(F)(F)F)c1` [Example 1061, N-(2-((2-((3,5-bis(trifluoromethyl)benzyl)oxy)-4-((2-methyl-[1,1′-biphenyl]-3-yl)methoxy)benzyl)amino)ethyl)acetamide], for which the IC50 fell in the range of 100 to 20000 nM.
Still for that read-out and setting: the value for `Cc1c(COc2cc(OCc3ccccc3)c(CN3CCCC[C@H]3C(=O)O)cc2Cl)cccc1-c1ccc2c(c1)OCCO2` [Example 3028, (S)-1-(2-(benzyloxy)-5-chloro-4-((3-(2,3-dihydrobenzo[b][1,4]dioxin-6-yl)-2-methylbenzyl)oxy)benzyl)piperidine-2-carboxylic acid] was 100 to 20000 nM.
Take `Cc1c(COc2cc(OCc3cccc(C#N)c3)c(CN[C@@H](Cc3cn(C)cn3)C(=O)O)cc2Cl)cccc1-c1ccc2c(c1)OCCO2` [Example 1176, (S)-2-((5-chloro-2-((3-cyanobenzyl)oxy)-4-((3-(2,3-dihydrobenzo[b][1,4]dioxin-6-yl)-2-methylbenzyl)oxy)benzyl)amino)-3-(1-methyl-1H-imidazol-4-yl)propanoic acid]: the IC50 fell in the range of 0.6 to 10 nM.
On to `CC(=O)NCCNCc1ccc(OCc2cccc(-c3ccccc3)c2C)cc1OCc1cccc2cccnc12` [Example 1074, N-(2-((4-((2-methyl-[1,1′-biphenyl]-3-yl)methoxy)-2-(quinolin-8-ylmethoxy)benzyl)amino)ethyl)acetamide], for which the IC50 is 100 to 20000 nM.
In the case of `CC(=O)NCCNCc1ccc(OCc2cccc(-c3ccccc3)c2C)cc1OCc1cccc(C(=O)OC(C)(C)C)c1` [Example 1105, tert-butyl 3-((2-(((2-acetamidoethyl)amino)methyl)-5-((2-methyl-[1,1′-biphenyl]-3-yl)methoxy)phenoxy)methyl)benzoate], the concentration for half-maximal inhibition (IC50) was in the range of 100 to 20000 nM.
Same read-out and setting: then `Cc1c(COc2cc(OCc3cncc(C#N)c3)c(CN3CCCC[C@H]3C(=O)O)cc2Cl)cccc1-c1ccc2c(c1)OCCO2` [Example 1253, (S)-1-(5-chloro-2-((5-cyanopyridin-3-yl)methoxy)-4-((3-(2,3-dihydrobenzo[b][1,4]dioxin-6-yl)-2-methylbenzyl)oxy)benzyl)piperidine-2-carboxylic acid, TFA salt], with 0.6 to 10 nM; and `Cc1c(COc2cc(OCc3cccc(C#N)c3)c(CNC(Cc3c[nH]c4ncccc34)C(=O)O)cc2Cl)cccc1-c1ccc2c(c1)OCCO2` (centres unmarked) [Example 1185, 2-((5-chloro-2-((3-cyanobenzyl)oxy)-4-((3-(2,3-dihydrobenzo[b][1,4]dioxin-6-yl)-2-methylbenzyl)oxy)benzyl)amino)-3-(1H-pyrrolo[2,3-b]pyridin-3-yl)propanoic acid], with 10 to 100 nM; and `CC(=O)NCCNCc1ccc(OCc2cccc(-c3ccccc3)c2C)cc1OCc1cccc(CO)c1` [Example 1037, N-(2-((2-((3-(hydroxymethyl)benzyl)oxy)-4-((2-methyl-[1,1′-biphenyl]-3-yl)methoxy)benzyl)amino)ethyl)acetamide], with 100 to 20000 nM.
Same read-out and setting: the value for `Cc1c(COc2cc(OCc3cccc(C#N)c3)c(CN[C@@H](CC[S+](C)[O-])C(=O)O)cc2Cl)cccc1-c1ccc2c(c1)OCCO2` (stereo partly drawn) [Example 1174, (2S)-2-((5-chloro-2-((3-cyanobenzyl)oxy)-4-((3-(2,3-dihydrobenzo[b][1,4]dioxin-6-yl)-2-methylbenzyl)oxy)benzyl)amino)-4-(methylsulfinyl)butanoic acid] was 0.6 to 10 nM; that for `N#Cc1cccc(COc2cc(OCc3cccc(-c4ccc5c(c4)OCCO5)c3C#N)c(Cl)cc2CN[C@H](CO)C(=O)O)c1` [Example 1242, (R)-2-((5-chloro-4-((2-cyano-3-(2,3-dihydrobenzo[b][1,4]dioxin-6-yl)benzyl)oxy)-2-((3-cyanobenzyl)oxy)benzyl)amino)-3-hydroxypropanoic acid] was 0.6 to 10 nM.
Take `Cc1c(COc2cc(OCc3cccc(C#N)c3)c(CNC(CC(F)(F)F)C(=O)O)cc2Cl)cccc1-c1ccc2c(c1)OCCO2` (centres unmarked) [Example 1216, 2-((5-chloro-2-((3-cyanobenzyl)oxy)-4-((3-(2,3-dihydrobenzo[b][1,4]dioxin-6-yl)-2-methylbenzyl)oxy)benzyl)amino)-4,4,4-trifluorobutanoic acid]: the IC50 lay in the range of 100 to 20000 nM.
As for `CCOC(=O)Nc1cncc(COc2cc(OCc3cccc(-c4ccc5c(c4)OCCO5)c3C)c(Cl)cc2CN[C@@](C)(CO)C(=O)O)c1` [Example 3009, (S)-2-((5-chloro-4-((3-(2,3-dihydrobenzo[b][1,4]dioxin-6-yl)-2-methylbenzyl)oxy)-2-((5-((ethoxycarbonyl)amino)pyridin-3-yl)methoxy)benzyl)amino)-3-hydroxy-2-methylpropanoic acid], the IC50 was 0.6 to 10 nM.
For `COc1ccc(C(=O)O)cc1COc1cc(OCc2cccc(-c3ccc4c(c3)OCCO4)c2C)c(Cl)cc1CN1CCCC[C@H]1C(=O)O` [Example 3027, (S)-1-(2-((5-carboxy-2-methoxybenzyl)oxy)-5-chloro-4-((3-(2,3-dihydrobenzo[b][1,4]dioxin-6-yl)-2-methylbenzyl)oxy)benzyl)piperidine-2-carboxylic acid], the IC50 lay in the range of 100 to 20000 nM.
Still for that read-out and setting: then `Cc1c(COc2cc(OCc3cncc(C#N)c3)c(CN[C@](C)(CO)C(=O)O)cc2Cl)cccc1-c1ccc2c(c1)OCCO2` [Example 1248, (R)-2-((5-chloro-2-((5-cyanopyridin-3-yl)methoxy)-4-((3-(2,3-dihydrobenzo[b][1,4]dioxin-6-yl)-2-methylbenzyl)oxy)benzyl)amino)-3-hydroxy-2-methylpropanoic acid], with 0.6 to 10 nM.
Same read-out and setting: then `CC(=O)NCCNCc1ccc(OCc2cccc(-c3ccccc3)c2C)cc1OCc1cccc(Oc2ccc(F)cc2)c1` [Example 1078, N-(2-((2-((3-(4-fluorophenoxyl)benzyl)oxy)-4-((2-methyl-[1,1′-biphenyl]-3-yl)methoxy)benzyl)amino)ethyl)acetamide], with 100 to 20000 nM; and `CC(=O)NCCNCc1cc(C)c(OCc2cccc(-c3ccc4c(c3)OCCO4)c2C)cc1OCc1cccc(C#N)c1` [Example 1264, N-(2-((2-((3-cyanobenzyl)oxy)-4-((3-(2,3-dihydrobenzo[b][1,4]dioxin-6-yl)-2-methylbenzyl)oxy)-5-methylbenzyl)amino)ethyl)acetamide], with 0.6 to 10 nM.
